Columns and labels:
[1] = target: Cyclin-dependent kinase 2 (Homo sapiens, UniProt P24941); experiment: Inhibitory activity against Cyclin-dependent kinase 2
[2] = target: Proto-oncogene tyrosine-protein kinase Src (Homo sapiens, UniProt P12931); experiment: Inhibitory activity was tested against Src protein tyrosine kinase
[3] = target: Platelet-derived growth factor receptor beta (Homo sapiens, UniProt P09619); experiment: Inhibitory activity was tested against Platelet-derived growth factor receptor beta
Chain of Platelet-derived growth factor receptor beta (P09619 whole entry): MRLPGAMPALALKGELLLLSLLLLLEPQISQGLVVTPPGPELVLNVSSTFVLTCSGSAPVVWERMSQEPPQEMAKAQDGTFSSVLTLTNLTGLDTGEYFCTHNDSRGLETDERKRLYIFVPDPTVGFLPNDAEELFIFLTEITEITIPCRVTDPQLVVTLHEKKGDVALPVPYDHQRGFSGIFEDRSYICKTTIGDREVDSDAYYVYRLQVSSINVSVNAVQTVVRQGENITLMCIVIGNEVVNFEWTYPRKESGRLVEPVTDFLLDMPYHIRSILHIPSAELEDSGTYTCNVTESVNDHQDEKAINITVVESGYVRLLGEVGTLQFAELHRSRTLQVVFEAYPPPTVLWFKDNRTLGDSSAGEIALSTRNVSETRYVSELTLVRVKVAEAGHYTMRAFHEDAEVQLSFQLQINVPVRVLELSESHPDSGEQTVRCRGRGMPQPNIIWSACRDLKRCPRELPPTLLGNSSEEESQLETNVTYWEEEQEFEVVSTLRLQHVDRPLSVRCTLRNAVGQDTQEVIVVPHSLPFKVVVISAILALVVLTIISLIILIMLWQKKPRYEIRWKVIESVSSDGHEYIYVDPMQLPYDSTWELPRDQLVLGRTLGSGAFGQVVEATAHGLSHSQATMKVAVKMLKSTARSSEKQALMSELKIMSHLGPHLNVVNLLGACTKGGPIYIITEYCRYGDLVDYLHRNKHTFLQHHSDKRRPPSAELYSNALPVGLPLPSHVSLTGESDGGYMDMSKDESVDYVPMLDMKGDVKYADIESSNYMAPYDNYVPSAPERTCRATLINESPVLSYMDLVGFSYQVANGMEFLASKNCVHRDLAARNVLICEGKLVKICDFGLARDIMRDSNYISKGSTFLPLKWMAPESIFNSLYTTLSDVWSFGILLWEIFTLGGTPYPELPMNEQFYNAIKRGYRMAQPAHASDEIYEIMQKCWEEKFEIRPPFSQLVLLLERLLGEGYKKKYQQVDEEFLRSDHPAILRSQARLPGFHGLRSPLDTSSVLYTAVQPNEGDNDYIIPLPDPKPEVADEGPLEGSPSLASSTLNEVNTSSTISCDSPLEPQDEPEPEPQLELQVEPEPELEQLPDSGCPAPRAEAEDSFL

[4] = target: Vascular endothelial growth factor receptor 2 (Homo sapiens, UniProt P35968); experiment: Inhibitory activity was tested against FLK kinase
Chain of Vascular endothelial growth factor receptor 2 (P35968 whole entry): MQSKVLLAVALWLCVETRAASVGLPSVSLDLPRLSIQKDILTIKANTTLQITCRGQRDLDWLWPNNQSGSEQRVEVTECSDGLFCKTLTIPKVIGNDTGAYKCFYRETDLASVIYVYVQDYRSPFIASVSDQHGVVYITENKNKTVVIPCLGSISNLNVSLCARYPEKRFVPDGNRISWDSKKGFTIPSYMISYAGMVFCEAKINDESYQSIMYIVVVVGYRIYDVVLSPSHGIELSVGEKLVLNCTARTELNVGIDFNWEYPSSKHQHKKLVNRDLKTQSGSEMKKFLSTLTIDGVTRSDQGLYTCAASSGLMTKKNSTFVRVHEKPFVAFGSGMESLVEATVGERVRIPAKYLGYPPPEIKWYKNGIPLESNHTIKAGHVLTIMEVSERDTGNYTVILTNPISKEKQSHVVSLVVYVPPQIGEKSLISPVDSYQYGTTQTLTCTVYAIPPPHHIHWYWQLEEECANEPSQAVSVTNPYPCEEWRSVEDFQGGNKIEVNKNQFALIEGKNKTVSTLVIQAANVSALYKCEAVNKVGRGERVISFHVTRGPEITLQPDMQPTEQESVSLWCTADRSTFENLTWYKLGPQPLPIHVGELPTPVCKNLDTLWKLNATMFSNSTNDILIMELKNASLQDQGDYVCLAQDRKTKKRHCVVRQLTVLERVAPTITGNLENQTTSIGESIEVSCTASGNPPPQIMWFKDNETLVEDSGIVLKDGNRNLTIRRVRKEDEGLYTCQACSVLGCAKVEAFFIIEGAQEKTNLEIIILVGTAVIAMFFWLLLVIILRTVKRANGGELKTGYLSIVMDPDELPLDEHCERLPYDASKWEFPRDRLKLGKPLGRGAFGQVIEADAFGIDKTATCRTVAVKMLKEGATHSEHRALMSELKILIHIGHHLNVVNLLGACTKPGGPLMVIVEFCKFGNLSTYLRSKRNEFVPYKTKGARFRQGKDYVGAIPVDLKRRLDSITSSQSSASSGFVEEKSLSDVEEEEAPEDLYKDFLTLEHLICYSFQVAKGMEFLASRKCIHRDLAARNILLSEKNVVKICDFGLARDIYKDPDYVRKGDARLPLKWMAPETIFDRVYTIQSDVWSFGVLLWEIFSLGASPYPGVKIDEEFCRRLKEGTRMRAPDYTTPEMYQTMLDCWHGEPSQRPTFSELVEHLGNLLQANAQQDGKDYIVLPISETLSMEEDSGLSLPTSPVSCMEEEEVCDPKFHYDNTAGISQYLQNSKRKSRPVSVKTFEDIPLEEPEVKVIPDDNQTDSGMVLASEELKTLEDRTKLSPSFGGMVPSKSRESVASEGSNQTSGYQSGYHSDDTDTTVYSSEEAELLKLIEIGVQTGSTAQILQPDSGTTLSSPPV

Chain of Proto-oncogene tyrosine-protein kinase Src (P12931 2-536 limits assumed): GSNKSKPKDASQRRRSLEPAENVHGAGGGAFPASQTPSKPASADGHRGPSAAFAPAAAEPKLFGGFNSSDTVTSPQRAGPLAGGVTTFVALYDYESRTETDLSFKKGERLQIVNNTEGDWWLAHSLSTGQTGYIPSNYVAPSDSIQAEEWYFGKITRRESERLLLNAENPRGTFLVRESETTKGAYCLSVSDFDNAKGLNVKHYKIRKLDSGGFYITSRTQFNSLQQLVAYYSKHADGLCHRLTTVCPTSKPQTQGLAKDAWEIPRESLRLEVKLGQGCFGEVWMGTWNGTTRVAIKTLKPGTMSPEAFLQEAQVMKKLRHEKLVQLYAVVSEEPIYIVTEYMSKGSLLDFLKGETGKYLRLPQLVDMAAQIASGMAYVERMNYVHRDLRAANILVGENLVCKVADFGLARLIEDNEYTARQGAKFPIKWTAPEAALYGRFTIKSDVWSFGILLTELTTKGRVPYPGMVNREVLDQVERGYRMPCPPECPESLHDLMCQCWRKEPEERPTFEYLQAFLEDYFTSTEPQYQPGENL

IC50 [1] | IC50 [2] | IC50 [3] | IC50 [4] | Structure (SMILES)
300 nM |  |  |  | O=C1Nc2ccc(F)cc2/C1=C/c1[nH]cc2c1CCNC2=O
12 nM | 13000 nM | > 20000 nM | 6600 nM | NS(=O)(=O)c1ccc2c(c1)/C(=C/c1[nH]cc3c1CCOC3=O)C(=O)N2
5700 nM |  |  |  | O=C1Nc2cc(-c3ccccc3)ccc2/C1=C/c1[nH]cc2c1CCNC2=O
68 nM |  |  |  | O=C1Nc2ccc(C(=O)O)cc2/C1=C/c1[nH]cc2c1CCNC2=O
30 nM | > 20000 nM | > 20000 nM | 1200 nM | O=C1Nc2cccc(CCO)c2/C1=C/c1[nH]cc2c1CCOC2=O
> 10000 nM | 8400 nM | 1100 nM | 2000 nM | O=C1Nc2cc(-c3ccccc3)ccc2/C1=C/c1[nH]cc2c1CCOC2=O
530 nM |  |  |  | O=C1Nc2ccc(Br)cc2/C1=C/c1[nH]cc2c1CCNC2=O
40 nM | > 20000 nM | > 20000 nM | > 20000 nM | COc1ccc2c(c1)/C(=C/c1[nH]cc3c1CCOC3=O)C(=O)N2
190 nM | > 20000 nM | 18000 nM | 11000 nM | O=C1Nc2ccc(Br)cc2/C1=C/c1[nH]cc2c1CCOC2=O
68 nM |  |  |  | CN(C)S(=O)(=O)c1ccc2c(c1)/C(=C/c1[nH]cc3c1CCNC3=O)C(=O)N2
33 nM | > 20000 nM | > 20000 nM | > 20000 nM | CN(C)S(=O)(=O)c1ccc2c(c1)/C(=C/c1[nH]cc3c1CCOC3=O)C(=O)N2
9 nM |  |  |  | CNS(=O)(=O)c1ccc2c(c1)/C(=C/c1[nH]cc3c1CCNC3=O)C(=O)N2
250 nM |  |  |  | COc1ccc2c(c1)/C(=C/c1[nH]cc3c1CCNC3=O)C(=O)N2
340 nM |  |  |  | O=C1Nc2cccc(CCO)c2/C1=C/c1[nH]cc2c1CCNC2=O
270 nM | > 20000 nM | > 20000 nM | > 20000 nM | Cc1cccc2c1/C(=C/c1[nH]cc3c1CCOC3=O)C(=O)N2
88 nM | > 20000 nM | 2100 nM | > 20000 nM | O=C1Nc2ccc(Cl)cc2/C1=C/c1[nH]cc2c1CCOC2=O
9 nM | 1100 nM | 1100 nM | 490 nM | O=C1Nc2cccc(C3CCNCC3)c2/C1=C/c1[nH]cc2c1CCOC2=O
49 nM |  |  |  | O=C1Nc2cccc(C3CCNCC3)c2/C1=C/c1[nH]cc2c1CCNC2=O
4 nM | > 20000 nM | > 20000 nM | 6200 nM | O=C1Nc2ccc(C(=O)O)cc2/C1=C/c1[nH]cc2c1CCOC2=O
1500 nM | > 20000 nM | 1400 nM | > 20000 nM | COc1ccc2c(c1)NC(=O)/C2=C\c1[nH]cc2c1CCOC2=O
4 nM | > 20000 nM | > 20000 nM | 6600 nM | CNS(=O)(=O)c1ccc2c(c1)/C(=C/c1[nH]cc3c1CCOC3=O)C(=O)N2
82 nM | > 20000 nM | > 20000 nM | 10000 nM | O=C1Nc2ccc(F)cc2/C1=C/c1[nH]cc2c1CCOC2=O
64 nM | > 20000 nM | > 20000 nM | 6700 nM | CC(C)NS(=O)(=O)c1ccc2c(c1)/C(=C/c1[nH]cc3c1CCOC3=O)C(=O)N2

Reference: ChEMBL document CHEMBL1136528, “Novel pyrrolyllactone and pyrrolyllactam indolinones as potent cyclin-dependent kinase 2 inhibitors” (Bioorg Med Chem Lett, 2003)
